From the NIST ThermoML archive (doi:10.1021/je050020m)

Test: xn = mol fraction of the nth substance listed
Settings: Liquid, Vibrating tube method

CCCCCCCCCC [decane] + O=C=O
Settings	mass density [kg/m3]
313.1 K, 2005 kPa, x2 = 0.0551	717.94
313.1 K, 3035 kPa, x2 = 0.0551	718.98
313.1 K, 4061 kPa, x2 = 0.0551	719.88
313.1 K, 5020 kPa, x2 = 0.2369	728.09
313.1 K, 5063 kPa, x2 = 0.0551	720.72
313.1 K, 6029 kPa, x2 = 0.0551	721.55
313.1 K, 6029 kPa, x2 = 0.2369	729.09
313.1 K, 7015 kPa, x2 = 0.2369	730.07
313.1 K, 7028 kPa, x2 = 0.0551	722.42
313.1 K, 7998 kPa, x2 = 0.0551	723.25
313.1 K, 8019 kPa, x2 = 0.2369	731.05
313.1 K, 9012 kPa, x2 = 0.2369	732.01
313.1 K, 9019 kPa, x2 = 0.0551	724.09
313.1 K, 10010 kPa, x2 = 0.0551	724.92
313.1 K, 10012 kPa, x2 = 0.2369	732.96
313.1 K, 11018 kPa, x2 = 0.2369	733.88
313.1 K, 11032 kPa, x2 = 0.0551	725.72
313.1 K, 12009 kPa, x2 = 0.2369	734.8
313.1 K, 12046 kPa, x2 = 0.0551	726.55
313.1 K, 13016 kPa, x2 = 0.2369	735.72
313.1 K, 13029 kPa, x2 = 0.0551	727.32
313.1 K, 14011 kPa, x2 = 0.0551	728.1
313.1 K, 14019 kPa, x2 = 0.2369	736.6
313.1 K, 15006 kPa, x2 = 0.2369	737.46
313.1 K, 15013 kPa, x2 = 0.0551	728.84
313.1 K, 15992 kPa, x2 = 0.0551	729.58
313.1 K, 16017 kPa, x2 = 0.2369	738.34
313.1 K, 16999 kPa, x2 = 0.0551	730.32
313.1 K, 17006 kPa, x2 = 0.2369	739.17
313.1 K, 18008 kPa, x2 = 0.2369	740.01
313.1 K, 18044 kPa, x2 = 0.0551	731.13
313.1 K, 19016 kPa, x2 = 0.2369	740.85
313.1 K, 19030 kPa, x2 = 0.0551	731.85
313.1 K, 19999 kPa, x2 = 0.0551	732.57
313.1 K, 20000 kPa, x2 = 0.2369	741.67
313.1 K, 21019 kPa, x2 = 0.2369	742.51
313.1 K, 21031 kPa, x2 = 0.0551	733.3
313.1 K, 22002 kPa, x2 = 0.2369	743.29
313.1 K, 22015 kPa, x2 = 0.0551	734
313.1 K, 23007 kPa, x2 = 0.2369	744.12
313.1 K, 23023 kPa, x2 = 0.0551	734.74
313.1 K, 24008 kPa, x2 = 0.2369	744.96
313.1 K, 24060 kPa, x2 = 0.0551	735.5
313.1 K, 25013 kPa, x2 = 0.2369	745.78
313.1 K, 25026 kPa, x2 = 0.0551	736.2
313.11 K, 7015 kPa, x2 = 0.4536	742.3
313.11 K, 8024 kPa, x2 = 0.4536	743.57
313.11 K, 9021 kPa, x2 = 0.4536	744.82
313.11 K, 10024 kPa, x2 = 0.4536	746.02
313.11 K, 11020 kPa, x2 = 0.4536	747.22
313.11 K, 11029 kPa, x2 = 0.9663	714.21
313.11 K, 12022 kPa, x2 = 0.4536	748.39
313.11 K, 12037 kPa, x2 = 0.9663	738.68
313.11 K, 13012 kPa, x2 = 0.4536	749.55
313.11 K, 13049 kPa, x2 = 0.9663	758.54
313.11 K, 14017 kPa, x2 = 0.4536	750.69
313.11 K, 14020 kPa, x2 = 0.9663	774.43
313.11 K, 15013 kPa, x2 = 0.9663	788.48
313.11 K, 15020 kPa, x2 = 0.4536	751.81
313.11 K, 16007 kPa, x2 = 0.9663	800.98
313.11 K, 16020 kPa, x2 = 0.4536	752.93
313.11 K, 17013 kPa, x2 = 0.4536	753.99
313.11 K, 17027 kPa, x2 = 0.9663	812.43
313.11 K, 17984 kPa, x2 = 0.9663	822.21
313.11 K, 18019 kPa, x2 = 0.4536	755.06
313.11 K, 19014 kPa, x2 = 0.4536	756.08
313.11 K, 19037 kPa, x2 = 0.9663	832.11
313.11 K, 20002 kPa, x2 = 0.9663	840.48
313.11 K, 20018 kPa, x2 = 0.4536	757.13
313.11 K, 21015 kPa, x2 = 0.9663	848.66
313.11 K, 21018 kPa, x2 = 0.4536	758.18
313.11 K, 22006 kPa, x2 = 0.4536	759.18
313.11 K, 22023 kPa, x2 = 0.9663	856.28
313.11 K, 23003 kPa, x2 = 0.4536	760.18
313.11 K, 23021 kPa, x2 = 0.9663	863.4
313.11 K, 24023 kPa, x2 = 0.4536	761.23
313.11 K, 24063 kPa, x2 = 0.9663	870.36
313.11 K, 24976 kPa, x2 = 0.9663	876.18
313.11 K, 25010 kPa, x2 = 0.4536	762.23
313.12 K, 12053 kPa, x2 = 0.8114	782.82
313.12 K, 13017 kPa, x2 = 0.8114	785.68
313.12 K, 14021 kPa, x2 = 0.8114	788.54
313.12 K, 15103 kPa, x2 = 0.8114	791.51
313.12 K, 15990 kPa, x2 = 0.8114	793.84
313.12 K, 16981 kPa, x2 = 0.8114	796.39
313.12 K, 17993 kPa, x2 = 0.8114	798.92
313.12 K, 19038 kPa, x2 = 0.8114	801.45
313.12 K, 20009 kPa, x2 = 0.8114	803.73
313.12 K, 21018 kPa, x2 = 0.8114	806.06
313.12 K, 22020 kPa, x2 = 0.8114	808.29
313.12 K, 22999 kPa, x2 = 0.8114	810.42
313.12 K, 24019 kPa, x2 = 0.8114	812.6
313.12 K, 25017 kPa, x2 = 0.8114	814.7
323.04 K, 11016 kPa, x2 = 0.9663	580.54
323.04 K, 12005 kPa, x2 = 0.8114	762.12
323.04 K, 12030 kPa, x2 = 0.9663	636.15
323.04 K, 13009 kPa, x2 = 0.8114	765.56
323.04 K, 13015 kPa, x2 = 0.9663	672.02
323.04 K, 14007 kPa, x2 = 0.9663	698.83
323.04 K, 14026 kPa, x2 = 0.8114	769
323.04 K, 15008 kPa, x2 = 0.8114	772.02
323.04 K, 15021 kPa, x2 = 0.9663	721.04
323.04 K, 16018 kPa, x2 = 0.9663	739.12
323.04 K, 16046 kPa, x2 = 0.8114	775.13
323.04 K, 17018 kPa, x2 = 0.8114	777.99
323.04 K, 17026 kPa, x2 = 0.9663	754.76
323.04 K, 18002 kPa, x2 = 0.8114	780.75
323.04 K, 18010 kPa, x2 = 0.9663	768.22
323.04 K, 19001 kPa, x2 = 0.9663	780.23
323.04 K, 19025 kPa, x2 = 0.8114	783.58
323.04 K, 20025 kPa, x2 = 0.9663	791.43
323.04 K, 20031 kPa, x2 = 0.8114	786.22
323.04 K, 21021 kPa, x2 = 0.9663	801.33
323.04 K, 21047 kPa, x2 = 0.8114	788.86
323.04 K, 21988 kPa, x2 = 0.8114	791.16
323.04 K, 22023 kPa, x2 = 0.9663	810.55
323.04 K, 22999 kPa, x2 = 0.8114	793.66
323.04 K, 23026 kPa, x2 = 0.9663	819.05
323.04 K, 24016 kPa, x2 = 0.8114	796.11
323.04 K, 24036 kPa, x2 = 0.9663	827.07
323.04 K, 25030 kPa, x2 = 0.9663	834.47
323.04 K, 25054 kPa, x2 = 0.8114	798.55
323.05 K, 1989 kPa, x2 = 0.0551	710.33
323.05 K, 3015 kPa, x2 = 0.0551	711.28
323.05 K, 3984 kPa, x2 = 0.0551	712.18
323.05 K, 5002 kPa, x2 = 0.0551	713.14
323.05 K, 6010 kPa, x2 = 0.0551	714.04
323.05 K, 7043 kPa, x2 = 0.0551	714.97
323.05 K, 8018 kPa, x2 = 0.0551	715.86
323.05 K, 9009 kPa, x2 = 0.0551	716.73
323.05 K, 10008 kPa, x2 = 0.0551	717.66
323.05 K, 11036 kPa, x2 = 0.0551	718.47
323.05 K, 11995 kPa, x2 = 0.0551	719.35
323.05 K, 13035 kPa, x2 = 0.0551	720.16
